From patent US7320967B2, “Cosmetic composition, method of cosmetic treatment and preparation of a composition for promoting the growth and/or preventing or delaying the loss of hair” (L'Oreal, priority 2002, dated 2008)
Like-named read-outs stand apart in the source and are kept apart here.

How the values were obtained:
[1] = test system: PGF2α secreted by U937 cells; experiment: Cellular model: PGF2α secreted by PMA-differentiated, LPS-stimulated U937 cells; type: cell-based; conditions: 5 μM; U937 + 10 nM PMA, then LPS, 6 h
Experimental: This makes it possible to evaluate the efficacy of a selective 15-PGDH inhibitor on the protection of prostaglandins in a complex biological system producing the different types of enzyme involved in the metabolism of these molecules. For example, a culture of promonocytes is used, these being precursors of macrophages under certain conditions, a model which is very widespread for studying the metabolism of prostaglandins.
Indeed, the phorbol esters (10 nM PMA) cause within 24 h 00 min the differentiation of the promonocyte line U937 into macrophages; this differentiation is accompanied by the induction of 15-PGDH. (Tong and Tai, Biochim Biophys Acta, 2000; 1497: 61-68).
Moreover, stimulation of these macrophages by LPS (lipopolysaccharide extracted from the bacterial wall) induces (at 100 ng/ml) in 6 h 00 min PGHS-2 (or COX-2), an enzyme responsible (in the same way as COX-1) for the synthesis of PGH2, a precursor (inter alia) via PGFS, of PGF2α (Arias-Negrete et al., 1995. Biochem Biophys Res Commun, 208(2), 582-589).
In a 1st stage, macrophage precursors are cultured in a suitable medium, in the presence of a compound stimulating their differentiation and the induction of 15-PGDH, and then the production of prostaglandins by these cells is stimulated, for example by LPSs in the form of an extract or by purified LPSs; this 2nd stage is performed in the presence or otherwise of the compound to be tested. The concentrations of prostaglandins, in particular of PGF2α, obtained in the presence of the 15-PGDH inhibiting compound to be tested are compared to that of the control containing only the 15-PGDH inducer, it being possible to carry out this measurement by any method known to a person skilled in the art, in particular by immunoenzymatic assay. […]
All the wells will contain the same final quantity of DMSO.
Immediate evaluation of the quantity of PGF2α secreted by the cells (50 μl) under different conditions (molecules or controls) using an immunoenzymatic assay kit (Cayman ref. 516011). […]

PGFS = target: T1, PGFS (Homo sapiens, UniProt P42330, H5Q); experiment: PGFS test (maximum reaction rate, optical density at 340 nm); type: biochemical; conditions: for IC50: protocol of Example 3
T1 construct: GST (glutathione S-transferase, pGEX 2T) (N, cleaved yes); made in house; host or cells: E. coli BL21DE3
T1 sequence (P42330 1-323 H5Q): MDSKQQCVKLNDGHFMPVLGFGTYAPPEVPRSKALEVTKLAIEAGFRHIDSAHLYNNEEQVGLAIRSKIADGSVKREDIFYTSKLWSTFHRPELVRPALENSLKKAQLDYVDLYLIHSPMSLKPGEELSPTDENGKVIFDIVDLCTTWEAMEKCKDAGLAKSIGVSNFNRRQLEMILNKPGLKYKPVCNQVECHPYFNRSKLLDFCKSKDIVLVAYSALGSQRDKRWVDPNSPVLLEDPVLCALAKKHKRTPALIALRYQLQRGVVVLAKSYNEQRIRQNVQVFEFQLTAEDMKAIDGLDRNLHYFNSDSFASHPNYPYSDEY
Experimental: The compounds noted as 15-PGDH inhibitors are then tested for their capacity to inhibit PGF synthase. For that, the following are for example brought into contact: the enzyme PGFS at a final concentration of 25×10^−3 mg/l, its cosubstrate (β-NADPH2) and a substrate (for example phenanthrenequinone) at the concentrations conventionally used for this test as described for example by Suzuki et al. (cDNA cloning, expression and mutagenesis study of liver-type prostaglandin F synthase. J Biol Chem, 1999, 274(1): 241-248), that is to say 100 μM β-NADPH2 and 20 μM phenanthrenequinone. The maximum reaction rate is measured per unit of time at 37° C. The same reaction is carried out but adding the test compound to the medium at the start of the reaction. The maximum enzyme reaction rate with the compound is compared to that of the control with no compound, and the percentage inhibition [100−(Vmax assay×100)/Vmax control] is determined.
The enzyme obtained is at a concentration of 0.5 mg/ml and blocked at −80° C. This suspension is thawed and stored on ice.
Preparation in a brown flask (protection from light) of a 100 mM Tris buffer pH=6.5 containing 20 μM 9,10-phenanthrenequinone* (P2896, Sigma-Aldrich, L'isle D'Abeau Chesne, BP 701, 38297, Saint Quentin Fallavier) and 100 μM β-NADPH (N1630, Sigma-Aldrich, L'isle D'Abeau Chesne, BP 701, 38297, Saint Quentin Fallavier). A stock solution having a titre of 1 mM is prepared in absolute ethanol heated to 40° C., the flask is placed in an ultrasonic tank in order to facilitate the solubilization of the product.
0.950 ml of this buffer (previously heated to 37° C.) is introduced into the cuvette of a spectrophotometer (Perkin-Elmer, Lambda 2) thermostated at 37° C. whose wavelength for measurement is set at 340 nm. 0.05 ml of enzymatic suspension at 37° C. is introduced into the cuvette concomitantly with the recording (reduction in the optical density at 340 nm).
(§1) The maximum reaction rate is recorded.
(§2) The test values (molecules) are compared with the control value (with no molecule), the results are expressed as % of the control value.

15-PGDH = target: T2, 15-PGDH (Homo sapiens, UniProt P15428); experiment: 15-PGDH test (maximum reaction rate, optical density at 340 nm); type: biochemical
T2 construct: GST (glutathione S-transferase, pGEX 4T3) (N, cleaved yes); made in house; host or cells: E. coli BL21DE3plys
T2 sequence (P15428 1-266): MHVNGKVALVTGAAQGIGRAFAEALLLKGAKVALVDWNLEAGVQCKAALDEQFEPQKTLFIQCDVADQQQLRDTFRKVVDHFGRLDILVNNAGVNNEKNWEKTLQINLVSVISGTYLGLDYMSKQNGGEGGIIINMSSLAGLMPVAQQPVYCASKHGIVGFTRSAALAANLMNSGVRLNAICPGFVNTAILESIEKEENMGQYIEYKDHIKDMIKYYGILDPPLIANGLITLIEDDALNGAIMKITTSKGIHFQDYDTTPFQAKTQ
Experimental: For that, the following are for example brought into contact: the enzyme 15-PGDH at a final concentration of 7×10^−3 mg/ml, its cosubstrate (β-NAD) and a substrate (PGE2) at the concentrations corresponding to the conditions conventionally used for this test as described for example by Cho and Tai (Inhibition of NAD-dependent 15-hydroxyprostaglandin dehydrogenase (15-PGDH) by cyclooxygenase inhibitors and chemopreventive agents. Prostaglandins, Leukotrienes and Essential Fatty Acids, 2002, 67(6): 461-465), for example 1.5 mM β-NAD and 50 μM prostaglandin E2. The rate of the reaction is measured at 37° C. for 1 minute. The same reaction is carried out, but adding the test compound to the medium at the start of the reaction. The maximum enzyme reaction rate per unit of time (Vmax) measured in the presence of the compound is compared to that of the control with no compound, and the percentage inhibition [100−(Vmax assay×100)/Vmax control] is determined.
The enzyme obtained is at the concentration of 0.3 mg/ml and is blocked at −80° C. This suspension is thawed and stored on ice.
Preparation of a 100 mM Tris buffer pH=7.4 containing 0.1 mM dithiothreitol (D5545, Sigma-Aldrich, L'isle D'Abeau Chesne, BP 701, 38297, Saint Quentin Fallavier), 1.5 mM β-NAD (N6522, Sigma-Aldrich, L'isle D'Abeau Chesne, BP 701, 38297, Saint Quentin Fallavier), 50 μM Prostaglandin E2 (P4172, Sigma-Aldrich, L'isle D'Abeau Chesne, BP 701, 38297, Saint Quentin Fallavier).
0.965 ml of this buffer (previously heated to 37° C.) is introduced into a spectrophotometer cuvette (Perkin-Elmer, Lambda 2) thermostated at 37° C., whose wavelength for measurement is set at 340 nm. 0.035 ml of enzymatic suspension at 37° C. are introduced into the cuvette concomitantly with the recording (increase in the optical density at 340 nm).
as §1, §2

[2] = protocol of Example 3, read-out: Inhibition of 15-PGDH at 50 μM

Structure (SMILES)	PGF2α secreted, % of the control (LPS control) [1]	IC50 (PGFS) [µM]	inhibition at 50 µM (15-PGDH; [2]) [%]	IC50 (15-PGDH; protocol of Example 3) [µM]	inhibition at 50 µM (PGFS) [%]	inhibition at 50 µM (15-PGDH; read-out: % Inhibition 15-PGDH) [%]
O=C(Cc1nnn(-c2ccccc2)n1)c1ccccc1 [Compound 1, 1-phenyl-2-(2-phenyl-2H-tetrazol-5-yl)ethanone]	+16%	> 75	70			
COc1ccccc1NC(=O)Cn1nnc(-c2ccccc2)n1 [Compound 4, N-(2-methoxyphenyl)-2-(5-phenyl-2H-tetrazol-2-yl)acetamide]	+6%	> 75	60	55		
Cc1ccc(NC(=O)Cn2nnc(-c3cccc(C(F)(F)F)c3)n2)cc1 [Compound R29A, N-(4-methylphenyl)-2-{5-[3-(trifluoromethyl)phenyl]-2H-tetrazol-2-yl}acetamide]	+46%	> 75		30		
Nc1c(Cl)nc(-c2ccccc2)nc1Cl [Molecule A, 5-amino-4,6-dichloro-2-phenylpyrimidine]					5	43
O=C(Nc1ncc2c(n1)CC(c1ccccc1Cl)CC2=O)c1ccccc1 (centres unmarked) [Molecule B, N-[7-(2-Chlorophenyl)-5-oxo-5,6,7,8-tetrahydroquinazolin-2-yl]benzamide]					10	57
